Test results reported in PMC3691235, “Discovery of a Novel Dual Fungal CYP51/Human 5-Lipoxygenase Inhibitor: Implications for Anti-Fungal Therapy” (PLoS ONE, 2013).

Key:
[1] = biological target: T1, Human reticulocyte 15-lipoxygenase-1 (15-LOX-1) (Homo sapiens, UniProt P16050); test: Lipoxygenase UV-based inhibitor assay, 15-LOX-1; format: biochemical; details: 10 µM LA, pH 7.5
T1 construct: His6 (N); made in house
T1 sequence (P16050 1-662): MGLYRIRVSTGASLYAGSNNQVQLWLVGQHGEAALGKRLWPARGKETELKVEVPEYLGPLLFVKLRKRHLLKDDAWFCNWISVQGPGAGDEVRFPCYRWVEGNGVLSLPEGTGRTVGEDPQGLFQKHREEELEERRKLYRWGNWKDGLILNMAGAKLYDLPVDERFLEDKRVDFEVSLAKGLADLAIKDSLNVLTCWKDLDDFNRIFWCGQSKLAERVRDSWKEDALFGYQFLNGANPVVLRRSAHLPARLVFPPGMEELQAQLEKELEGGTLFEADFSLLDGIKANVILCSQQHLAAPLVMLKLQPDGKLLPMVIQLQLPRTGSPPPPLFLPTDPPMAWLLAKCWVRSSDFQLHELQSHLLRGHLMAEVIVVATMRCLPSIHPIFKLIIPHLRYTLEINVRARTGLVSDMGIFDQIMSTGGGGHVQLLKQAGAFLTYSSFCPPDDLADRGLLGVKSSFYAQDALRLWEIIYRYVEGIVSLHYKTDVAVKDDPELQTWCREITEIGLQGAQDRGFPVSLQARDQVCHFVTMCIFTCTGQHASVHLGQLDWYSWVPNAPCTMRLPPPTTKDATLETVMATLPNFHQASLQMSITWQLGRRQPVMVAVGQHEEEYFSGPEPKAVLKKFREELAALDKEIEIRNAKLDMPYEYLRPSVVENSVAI
Experimental: (§1) Human leukocyte 5-lipoxygenase was expressed as a non-tagged protein and used as a crude ammonium sulfate protein fraction, as published previously.
(§2) Inhibitor potencies were evaluated through use of the standard UV-based inhibitor assay. The initial rates were determined by following the formation of the conjugated diene product at 234 nm (ε = 25,000 M^−1 cm^−1) with a Perkin-Elmer Lambda 40 UV/Vis spectrophotometer at one substrate concentration and varying inhibitor concentrations. All reactions were 2 mL in volume and constantly stirred using a magnetic stir bar at room temperature (23°C), with the enzyme specific buffer conditions outlined in Table 1. The substrate used for the various isozymes was arachidonic acid (AA) for 5-LOX, 12-LOX, and 15-LOX-2 and linoleic acid (LA) for 15-LOX-1, where concentrations were quantitatively determined by allowing the enzymatic reaction to go to completion. IC50 values were obtained by determining the initial rate at various inhibitor concentrations and plotting them against inhibitor concentration, followed by a hyperbolic saturation curve fit. The data used for the saturation curves were performed in duplicate or triplicate, depending on the quality of the data. […] Inhibitors were stored at −20°C in DMSO. […] The solvent isotope effect of the inhibitor IC50 was investigated utilizing the same conditions and methods as stated above. The pH of the buffered D2O was determined as reported previously.

[2] = biological target: T2, human prostate epithelial 15-lipoxygenase-2 (15-LOX-2) (Homo sapiens, UniProt O15296); test: Lipoxygenase UV-based inhibitor assay, 15-LOX-2; format: biochemical; details: 30 µM AA, pH 7.5
T2 construct: His6 (N); made in house
T2 sequence (O15296 1-676): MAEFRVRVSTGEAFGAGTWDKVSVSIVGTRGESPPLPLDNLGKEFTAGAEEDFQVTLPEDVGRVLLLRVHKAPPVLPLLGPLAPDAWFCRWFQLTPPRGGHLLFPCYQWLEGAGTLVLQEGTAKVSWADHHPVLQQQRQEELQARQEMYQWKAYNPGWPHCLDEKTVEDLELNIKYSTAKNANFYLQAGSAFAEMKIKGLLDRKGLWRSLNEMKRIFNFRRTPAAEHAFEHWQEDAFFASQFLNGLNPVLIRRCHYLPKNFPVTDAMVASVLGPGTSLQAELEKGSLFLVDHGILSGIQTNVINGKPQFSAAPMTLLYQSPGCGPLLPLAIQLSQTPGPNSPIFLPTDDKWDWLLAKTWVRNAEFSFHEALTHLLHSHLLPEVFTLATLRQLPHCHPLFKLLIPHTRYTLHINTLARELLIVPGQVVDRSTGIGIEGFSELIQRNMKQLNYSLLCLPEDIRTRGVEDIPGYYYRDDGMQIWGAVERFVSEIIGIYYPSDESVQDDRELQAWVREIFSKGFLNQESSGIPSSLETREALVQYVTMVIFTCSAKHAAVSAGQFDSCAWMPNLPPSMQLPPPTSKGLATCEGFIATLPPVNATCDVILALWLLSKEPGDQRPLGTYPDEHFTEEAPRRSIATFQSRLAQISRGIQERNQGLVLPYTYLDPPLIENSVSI
Experimental: as §1, §2

[3] = test system: LTB4 synthesis in whole human blood; test: Human blood LTB4 inhibition assay; format: cell-based; details: for inhibition at 10 µM: Homo sapiens, compounds at 10 µM, calcium ionophore stimulated, ELISA, error in parentheses
Experimental: Whole human blood was obtained from healthy volunteers from within the Student Health Center. These studies were approved by the UCSC Institutional Review Board (IRB) and informed consent was obtained from all donors before blood draw. The whole blood was dispensed in 150 µL samples followed by addition of inhibitor or control (vehicle, DMSO), and incubated for 15 min at 37°C. The mixture was then stimulated by introduction of the calcium ionophore, […], (freshly diluted from a 50 mM DMSO stock to 1.5 mM in Hanks balanced salt solution), and incubated for 30 min at 37°C. Samples were then centrifuged at 1,500 rpm (300 g) for 10 min at 4°C and the supernatant diluted between 20 and 50-fold (batch dependent) for LTB4 detection, using an ELISA detection kit (Cayman Chemicals Inc.).

Which IC50 [1] does the source give for `CC(=O)N1CCN(c2ccc(NCc3ccc(-c4cccc(Cl)c4)o3)cc2)CC1` [Compound 13] here?
Its IC50 is > 50 µM.

And the IC50 [2]?
Its IC50 is > 50 µM.

And the inhibition at 10 µM [3]?
The inhibition at 10 µM was ~50%.

`CC(=O)N1CCN(c2ccc(NCC3COC(Cn4ccnc4)(c4ccc(Cl)cc4Cl)O3)cc2)CC1` (centres unmarked) [ketaminazole (16), ketaminazole] was tested. Which IC50 [1] did it give?
Its IC50 is > 150 µM.

And the IC50 [2]?
The IC50 was > 150 µM.

And the inhibition at 10 µM [3]?
The inhibition at 10 µM was 45%.

What about the “greater potency than ketoconazole in whole blood” value ([3]; whole human blood) of the same molecule?
The value was 2 fold.

With `CC(=O)N1CCN(c2ccc(OCC3COC(Cn4ccnc4)(c4ccc(Cl)cc4Cl)O3)cc2)CC1` (centres unmarked) [ketoconazole, reference compound] as the molecule, how does the IC50 [1] read?
Its IC50 is > 50 µM.

And the IC50 [2]?
The IC50 was > 150 µM.

What about the inhibition at 10 µM [3] of the same molecule?
Its inhibition at 10 µM is 25%.

`CC(C)(C)OC(=O)N1CCN(c2ccc(NCc3ccc(-c4ccc(C#N)cc4)o3)cc2)CC1` [Compound 1] was tested. Which IC50 [1] did it give?
The IC50 was > 150 µM.

And the IC50 [2]?
The IC50 was > 150 µM.

What about the inhibition at 10 µM [3] of the same molecule?
Its inhibition at 10 µM is ~50%.

Which IC50 [1] does the source give for `Cc1cc(C2CCCCC2)n(O)c(=O)c1` [ciclopirox, reference compound] here?
The IC50 was > 100 µM.

And the inhibition at 10 µM [3]?
The inhibition at 10 µM was 34%.

For `CC[C@](O)(c1nnc(NCc2ccc3c(-c4ccc(F)cc4)cc(=O)oc3c2)o1)C(F)(F)F` [setileuton, reference compound], which IC50 [1] is on record?
Its IC50 is > 150 µM.

What about the IC50 [2] of the same molecule?
The IC50 was > 150 µM.

What about the inhibition at 10 µM [3] of the same molecule?
The inhibition at 10 µM was 100%.

Which results are given for `N#Cc1ccc(-c2ccc(CNc3ccc(N4CCCCC4)cc3)o2)cc1` [Compound 14]?
IC50 [1]: > 25 µM; IC50 [2]: 10 µM
